From article PMC8533149 (Biomolecules, 2021)

Tested on: HIV-1 LTR-III G-quadruplex (FAM/TAMRA-labeled LTR-III)
Assay: FRET melting assay, LTR-III G4
Format: binding
Conditions: Table S1 primary screening, ligand:ODN 50:1, singlicate
Experimental: To evaluate stabilizing properties of the ligands in a complex with oligodeoxyribonucleotides (ODNs) melting with fluorescence registration was used. ODN (0.5 μM) (Table 1), labeled with 6-carboxyfluorescein (FAM) and 6-carboxytetramethylrhodamine (TAMRA) at the 5′- and 3′-end, respectively, were folded in lithium cacodylate buffer (10 mM, pH 7.4) with 100 mM KCl by heating at 95 °C for 5 min and gradually cooling to r.t. GFP chromophore analogs (5 mM solution in DMSO) were diluted with the same buffer to the final concentration of 25 μM and mixed with an equal volume of 0.5 μM ODN solution resulting in a molar ratio of 50:1 (total volume was 50 μL). For the titration experiments molar ratios of 20:1 and 2:1 were used. Samples were analyzed using DTprime qPCR system (DNA-Technology LLC, Moscow, Russia). Fluorescence was registered by detection of FAM emission at 520 nm upon excitation at 495 nm in the temperature range of 30–95 °C with 1 °C/min gradient. Tm was determined using the instrument software and ΔTm was calculated relative to ODN Tm in a buffer solution containing 0.25% (v/v) DMSO. The primary and secondary screening were carried out in singlicate and triplicate, respectively.

Compound | LTR-III ΔTm
CC1=NC(=Cc2ccc(C(=O)O)cc2)C(=O)N1C [AI 89] | -0.5 °C
COC(=O)c1ccc(C=C2N=C(C=Cc3ccc(OC)cc3)N(C)C2=O)cc1 [AI 116] | 0.8 °C
COc1ccc(C=CC2=NC(=Cc3cc(OC)ccc3OC)C(=O)N2C)cc1 [AI 118] | -0.1 °C
COc1ccc(C=CC2=NC(=Cc3ccc([N+](=O)[O-])cc3)C(=O)N2C)cc1 [AI 119] | 1.4 °C
COc1ccc(C=CC2=NC(=Cc3cc4cc(OC)ccc4cc3OC)C(=O)N2C)cc1 [AI 126] | 1.6 °C
CC(C)OC(=O)c1noc(=O)c(O)c1-c1ccc(O)cc1 [AL 23] | 0 °C
CC(C)OC(=O)c1noc(C(=O)NC2CCCCC2)c1-c1cccs1 [AL 25] | -0.1 °C
COc1ccc(NC(=O)c2onc(C(=O)OC(C)C)c2-c2ccc(OC)cc2)cc1 [AL 45] | 0.2 °C
CCNCC.CCOC(=O)c1noc(=O)c(O)c1-c1ccccc1 [AL 58] | 0.1 °C
COc1ccc(C=CC2=NC(=Cc3ccnc4ccccc34)C(=O)N2C)cc1 [AL 122] | -0.6 °C
COc1ccc(C=CC2=NC(=Cc3ccnc4ccccc34)C(=O)N2C)cc1 [AL 125] | 1.7 °C
CCC1=NC(=Cc2cc(C(C)(C)C)c(O)c(C(C)(C)C)c2)C(=O)N1C [AL 135.2] | -1.3 °C
CN(C)c1ccc(C=C2NC(=S)NC2=O)cc1 [AL 165] | -0.2 °C
CSC1=NC(=Cc2ccc(N(C)C)cc2)C(=O)N1 [AL 166.1] | 0.1 °C
CCN(CC)c1ccc(C=C2NC(=S)NC2=O)cc1 [AL 172] | -0.2 °C
CN1C(=O)C(=Cc2ccc(O[Si](c3ccccc3)(c3ccccc3)C(C)(C)C)cc2)N=C1c1ccccc1 [Amm 75] | -0.3 °C
CN1C(=O)C(=Cc2ccc(O)cc2)N=C1CCCCNC(=O)OC(C)(C)C [Boc-AV-GFP] | 0.2 °C
COc1cc(C=C2SC(=S)NC2=O)cc(OC)c1O [DOM] | -0.6 °C
CC1=NC(=Cc2ccc(O)cc2)C(=O)N1 [GA 01] | -0.4 °C
CN1C=NC(=Cc2ccc(O)cc2)C1=O [GA 02] | -0.4 °C

Compound | LTR-III ΔTm
CC1=NC(=Cc2ccc(O)cc2)C(=O)N1C [GA 03] | 0.5 °C
CCC1=NC(=Cc2ccc(O)cc2)C(=O)N1C [GA 04] | -0.1 °C
CCCC1=NC(=Cc2ccc(O)cc2)C(=O)N1C [GA 05] | -0.5 °C
CC(C)C1=NC(=Cc2ccc(O)cc2)C(=O)N1C [GA 06] | -0.7 °C
CC1=NC(=Cc2ccc(O)cc2)C(=O)N1CCO [GA 12] | 0.3 °C
CCC1=NC(=Cc2ccc(O)cc2)C(=O)N1O [GA 15] | -0.1 °C
CON1C(=O)C(=Cc2ccc(O)cc2)N=C1C [GA 16] | 0.3 °C
CC(C)CCC1=NC(=Cc2ccc(O)cc2)C(=O)N1C [GA 18] | -0.1 °C
CCN(CC)c1ccc(C=C2N=C(C)N(C)C2=O)cc1 [GC 01] | 0.4 °C
CCN(CC)c1ccc(C=C2N=C(C)N(CCCC(=O)O)C2=O)cc1 [GC 03] | 0.4 °C
CCN(CC)c1ccc(C=C2N=C(C)N(C)C2=O)cc1 [GC 04] | 0 °C
CC1=NC(=Cc2c[nH]c3ccccc23)C(=O)N1C [GC 07] | -0.4 °C
CN1C(=O)C(=Cc2ccc(O)cc2)N=C1Cc1ccccc1 [GFP-2-Bn] | -1.5 °C
CNC(=O)C(=Cc1ccc(Br)cc1)NC(=O)c1ccccc1 [GR 83] | -0.8 °C
CN1C(=O)C(=Cc2ccc(OCC(NC(=O)OC(C)(C)C)C(=O)O)cc2)N=C1c1ccccc1 (stereo not drawn) [GR 161] | -0.2 °C
O=C1NC(=S)SC1=Cc1ccc(O)cc1 [HBR] | -0.2 °C
Cc1cc(/C=C2\SC(=S)NC2=O)ccc1O [HMBR] | -0.6 °C
COc1ccc(C=C2N=C3C(=O)NCCN3C2=O)cc1 [JL 06.1] | 0.1 °C
COc1ccc(C=C2N=C3C(=O)NCCN3C2=O)cc1OC [JL 06.2] | 0.4 °C
